Patent publication US6342498B1, “Arylpiperazines as serotonin reuptake inhibitors and 5-HT1Dα antagonists” (Eli Lilly and Company, priority 1997, dated 2002)
Where a name gives a salt, the structure may show the parent alone.

Row | melting point [°C] | Compound
1 | 131 to 133 | COc1ccccc1N1CCN(CCCCN2CC=C(c3c[nH]c4cc(Cl)ccc34)CC2)CC1
2 | 91 to 95 | COc1ccccc1N1CCN(CCNCCCN2CCC(c3c[nH]c4cc(Cl)ccc34)CC2)CC1 (as salt: hydrochloride) [Example 10, N-(2-(4-(2-methoxyphenyl)piperazin-1-yl)eth-1-yl)-N-3-(4-(6-chloroindol-3-yl)-piperidin-1-yl)prop-1-ylamine tetrahydrochloride]
3 | 113 to 115 | COc1ccccc1N1CCN(CCCCCN2CCC(c3c[nH]c4cc(F)ccc34)CC2)CC1 (as salt: hydrochloride) [Example 19, 1-(2-methoxyphenyl) -4-(5-(4-(6-fluoroindole-3-yl) -piperidin-1-yl)pent-1-yl)piperazine trihydrochloride]
4 | 139 to 141 | COc1ccccc1N1CCN(CCCCCN2CCC(c3c[nH]c4cc(Cl)ccc34)CC2)CC1 (as salt: hydrochloride) [Example 20, 1-(2-methoxyphenyl) -4-(5-(4-(6-chloroindole-3-yl) -piperidin-1-yl)pent-1-yl)piperazine trihydrochloride]
5 | 185 to 187 | COc1ccccc1N1CCN(CCCCCCN2CCC(c3c[nH]c4cc(Cl)ccc34)CC2)CC1 (as salt: hydrochloride) [Example 21, 1-(2-methoxyphenyl)-4-(6-(4-(6-chloroindol-3-yl)-piperidin-1-yl)hex-1-yl)piperazine trihydrochloride]
6 | 145 to 147 | COc1ccccc1N1CCN(CCCCCCN2CCC(c3c[nH]c4cc(F)ccc34)CC2)CC1 (as salt: hydrochloride) [Example 22, 1-(2-methoxyphenyl)-4-(6-(4-(6-fluoroindol-3-yl)-piperidin-1-yl)hex-1-yl)piperazine trihydrochloride]
7 | 175 to 177 | COc1ccccc1N1CCN(CCNC(=O)CCN2CC=C(c3c[nH]c4cc(F)ccc34)CC2)CC1 [Example 1, N-(2-(4-(2-methoxyphenyl)piperazin-1-yl)eth-1-yl)-3-(4-(6-fluoroindol-3-yl)-1,2,3,6-tetrahydropyridin-1-yl)propanamide]
8 | 181 to 183 | COc1ccccc1N1CCN(CCNC(=O)CCN2CC=C(c3c[nH]c4cc(Cl)ccc34)CC2)CC1 [Example 2, N-(2-(4-(2-methoxyphenyl)piperazin-1-yl)eth-1-yl)-3-(4-(6-chloroindol-3-yl)-1,2,3,6-tetrahydropyridin-1-yl)propanamide]
9 | 82 to 84 | COc1ccccc1N1CCN(CCNCCCN2CC=C(c3c[nH]c4cc(F)ccc34)CC2)CC1 [Example 6, N-(2-(4-(2-methoxyphenyl)piperazin-1-yl)eth-1-yl)-N3-(4-(6-fluoroindol-3-yl)-1,2,3,6-tetrahydropyridin-1-yl)prop-1-ylamine]
10 | 71 to 73 | COc1ccccc1N1CCN(CCNCCCN2CC=C(c3c[nH]c4cc(Cl)ccc34)CC2)CC1 [Example 7, N-(2-(4-(2-methoxyphenyl)piperazin-1-yl)eth-1-yl)-N-3-(4-(6-chloroindol-3-yl)-1,2,3,6-tetrahydropyridin-1-yl)prop-1-ylamine]
11 | 78 to 80 | COc1ccccc1N1CCN(CCNCCN2CC=C(c3c[nH]c4cc(Cl)ccc34)CC2)CC1 [Example 12, N-(2-(4-(2-methoxyphenyl)piperazin-1-yl)eth-1-yl), N-2-(4-(6-chloroindol-3-yl)-1,2,3,6-tetrahydropyridin-1-yl)eth-1-ylamine]
12 | 105 to 107 | COc1ccccc1N1CCN(CCCCCCN2CC=C(c3c[nH]c4cc(F)ccc34)CC2)CC1 [Example 14, 1-(2-methoxyphenyl)-4-(6-(4-(6-fluoroindole-3-yl)-1,2,3,6-tetrahydropyridin-1-yl)hex-1-yl)piperazine]
13 | 126 to 128 | COc1ccccc1N1CCN(CCCCCN2CC=C(c3c[nH]c4cc(Cl)ccc34)CC2)CC1 [Example 15, 1-(2-methoxyphenyl)-4-(5-(4-(6-chloroindole-3-yl)-1,2,3,6-tetrahydropyridin-1-yl)pent-1-yl)piperazine]
14 | 69 to 71 | COc1ccccc1N1CCN(CCCCCN2CC=C(c3c[nH]c4cc(F)ccc34)CC2)CC1 [Example 16, 1-(2-methoxyphenyl)-4-(5-(4-(6-fluoroindole-3-yl)-1,2,3,6-tetrahydropyridin-1-yl)pent-1-yl)piperazine]
